Some test systems named below: NCI-H460 lung; SK-MEL-5 melanoma; OVCAR-4 ovarian; DU-145 prostate; NCI/ADR-RES ovarian; NCI-H23 lung; MDA-N; KM12 colon; HCT-15 colon; TK-10 renal.
What all share (test): DTP human tumour cell line panel, 48 h

Each structure is given as a SMILES string.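 Briefly, cells in 96-well plates were exposed to five compound concentrations for 48 h, and endpoints were estimated by linear interpolation. TGI: total growth inhibition.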

`Nc1nn2c(nc(N)c3c(N)[nH]nc32)c1N=Nc1ccc(Br)cc1`: the TGI in the test on NCI-H460 lung is > 100 µM; in the test on SK-MEL-5 melanoma it was > 100 µM; in the test on OVCAR-4 ovarian, > 92.6 µM; with DU-145 prostate, > 100 µM; with NCI/ADR-RES ovarian it was > 100 µM; with NCI-H23 lung, > 7.37 µM. Moreover, the TGI in the test with MDA-N was 9.88 µM; in the test on KM12 colon, > 75.8 µM; with HCT-15 colon, > 100 µM; in the test with TK-10 renal, > 100 µM.

Turning to `O=C(CNc1ccccc1[N+](=O)[O-])Nn1c(-c2ccccc2)nc2ccccc2c1=O`, the TGI with NCI-H460 lung was 45.1 µM; in the test with SK-MEL-5 melanoma it was 22.1 µM; in the test on OVCAR-4 ovarian, 32.1 µM; with DU-145 prostate, > 100 µM; in the test on NCI/ADR-RES ovarian, 64.3 µM; in the test with NCI-H23 lung it was 76.5 µM. Further, the total growth inhibition concentration (TGI) in the test with MDA-N was 57.9 µM; in the test with KM12 colon, > 10 µM; in the test on HCT-15 colon, 44.3 µM; in the test with TK-10 renal it was > 10 µM.

With `O=[N+]([O-])c1cc2c(cc1/C=N/n1c(CO)nc3ccccc31)OCO2`, the TGI in the test with NCI-H460 lung, in the test on SK-MEL-5 melanoma, in the test on OVCAR-4 ovarian, in the test on DU-145 prostate, in the test on NCI/ADR-RES ovarian and in the test on NCI-H23 lung was > 100 µM in each case. For the same compound, the TGI with MDA-N, in the test with KM12 colon, in the test with HCT-15 colon and with TK-10 renal was > 100 µM in each case.

Regarding `O=C(NCc1cccc2ccccc12)N/N=C\c1ccc(Cl)cc1`, the concentration for total growth inhibition (TGI) with NCI-H460 lung, with SK-MEL-5 melanoma, in the test with OVCAR-4 ovarian, with DU-145 prostate, with NCI/ADR-RES ovarian and in the test on NCI-H23 lung was > 100 µM in each case. The TGI with MDA-N was 75.7 µM; in the test on KM12 colon it was > 100 µM; in the test on HCT-15 colon, > 100 µM; in the test on TK-10 renal it was > 100 µM.

With `O=S(=O)(/N=C(\NO)Nc1ccc(Cl)cc1)c1cccc2nsnc12`, the TGI is > 100 µM in the test with NCI-H460 lung; 29.5 µM in the test on SK-MEL-5 melanoma; > 100 µM in the test with OVCAR-4 ovarian; > 100 µM in the test with DU-145 prostate; > 100 µM in the test with NCI/ADR-RES ovarian; > 100 µM in the test with NCI-H23 lung. For the same compound, the TGI is 79 µM with MDA-N, > 100 µM with KM12 colon, > 100 µM in the test on HCT-15 colon and > 100 µM in the test on TK-10 renal.

Regarding `COc1ccc(OC)c(NS(=O)(=O)c2ccc3nc(C)n(NS(=O)(=O)c4cc(OC)ccc4OC)c(=O)c3c2)c1`, the TGI in the test on NCI-H460 lung, in the test on SK-MEL-5 melanoma, with OVCAR-4 ovarian, in the test on DU-145 prostate, in the test with NCI/ADR-RES ovarian and with NCI-H23 lung was > 100 µM in each case. In addition, the total growth inhibition concentration (TGI) with MDA-N, with KM12 colon, in the test on HCT-15 colon and in the test with TK-10 renal was > 100 µM each time.

As for `CCCCCCCCCCCCCCCCOC[C@@H](COC(c1ccccc1)(c1ccccc1)c1ccccc1)O[P+](=S)OC` (stereo partly drawn), the total growth inhibition concentration (TGI) in the test with NCI-H460 lung came out at 5.8 µM; in the test on SK-MEL-5 melanoma, 22.4 µM; in the test with OVCAR-4 ovarian it was 22.9 µM; in the test with DU-145 prostate it was 30.6 µM; in the test on NCI/ADR-RES ovarian it was 59.8 µM; in the test with NCI-H23 lung it was 23.7 µM. Besides, the concentration for total growth inhibition (TGI) in the test on MDA-N was determined as 5.53 µM; in the test with KM12 colon, 19.2 µM; in the test with HCT-15 colon, 22.4 µM; in the test on TK-10 renal, 23.6 µM.

As for `CCOC(=O)CC(=O)Nc1cccc2[nH]cnc12`, the TGI in the test with NCI-H460 lung, in the test with SK-MEL-5 melanoma, with OVCAR-4 ovarian, in the test on DU-145 prostate, with NCI/ADR-RES ovarian and in the test with NCI-H23 lung was > 100 µM in each case. The TGI with MDA-N, with KM12 colon and in the test with HCT-15 colon was > 100 µM throughout.

In the case of `CCNC(=O)c1c(O)c2ccccc2[nH]c1=O`, the concentration for total growth inhibition (TGI) with NCI-H460 lung, in the test on SK-MEL-5 melanoma, with OVCAR-4 ovarian, in the test on DU-145 prostate, in the test on NCI/ADR-RES ovarian and in the test with NCI-H23 lung was > 100 µM in each case. The TGI with MDA-N, in the test with KM12 colon, with HCT-15 colon and in the test with TK-10 renal was > 100 µM each time.

As for `COc1ccc(N2C(=O)C3c4[nH]c5ccc(F)cc5c4C4CCC(c5ccccc5)CC4C3C2=O)cc1` (stereo not drawn), the TGI was 46.8 µM with NCI-H460 lung; 54.2 µM in the test on SK-MEL-5 melanoma; 32.6 µM in the test with OVCAR-4 ovarian; > 100 µM with DU-145 prostate; > 100 µM with NCI/ADR-RES ovarian; 44.5 µM in the test on NCI-H23 lung. The TGI in the test with MDA-N is > 100 µM; with KM12 colon, > 100 µM; in the test on HCT-15 colon, > 100 µM; in the test with TK-10 renal, 70.1 µM.

Take `C=C1C(=O)O[C@@H]2C=C(C)C3=CC(=O)[C@](C)(C[C@H](OC(=O)/C(C)=C\C)[C@@H]12)O3`: the TGI was found to be 7.73 µM in the test on NCI-H460 lung; 2.03 µM in the test with SK-MEL-5 melanoma; 15.8 µM in the test with DU-145 prostate; 3.64 µM in the test with NCI/ADR-RES ovarian; 3.43 µM in the test on NCI-H23 lung; 1.49 µM with MDA-N. Besides, the TGI in the test with KM12 colon was 2.99 µM; in the test on HCT-15 colon it was 2.06 µM; in the test with TK-10 renal, 2.19 µM.

As for `COc1cc2c(=O)cnoc2cc1O`, the concentration for total growth inhibition (TGI) with NCI-H460 lung, in the test with SK-MEL-5 melanoma, in the test on OVCAR-4 ovarian, in the test on DU-145 prostate, in the test on NCI/ADR-RES ovarian and in the test with NCI-H23 lung was > 100 µM throughout. The TGI in the test with MDA-N, in the test with KM12 colon, with HCT-15 colon and in the test on TK-10 renal was > 100 µM each time.

For the compound `COc1cc2c(cc1OC)C1(COc3cc(O)c(O)c(O)c3C1=O)C2` (stereo not drawn), the TGI in the test on NCI-H460 lung, in the test with SK-MEL-5 melanoma, with OVCAR-4 ovarian, with DU-145 prostate, in the test on NCI/ADR-RES ovarian and with NCI-H23 lung was > 50 µM in each case. The TGI with MDA-N, in the test on KM12 colon, in the test on HCT-15 colon and in the test on TK-10 renal was > 50 µM each time.

Regarding `COc1ccc2cc(CN3CCC(C4CCNCC4)CC3)ccc2c1`, the TGI in the test on NCI-H460 lung came out at 4.4 µM; in the test with SK-MEL-5 melanoma, 3.1 µM; in the test on OVCAR-4 ovarian, 31.3 µM; with DU-145 prostate it was 15 µM; in the test with NCI/ADR-RES ovarian, 21 µM; in the test with NCI-H23 lung it was 33 µM. Further, the TGI in the test on MDA-N is 4.19 µM; with KM12 colon it was 5.25 µM; in the test on HCT-15 colon, 6.44 µM; in the test on TK-10 renal it was 21.3 µM.

Usually TGI stands for the concentration at which net growth stops. High values mean less potent growth arrest, low ones more potent growth arrest.

Source of the values: PubChem BioAssay (NCI).
